# Laboratory results reported in ChEMBL document CHEMBL1201862, “PubChem BioAssay data set” (2004).
#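 Values below derive from 48-hour exposures of cells grown in 96-well plates, with endpoints linearly interpolated between the two concentrations bracketing the appropriate inhibition level. Here, GI50 denotes the concentration required for 50% inhibition of growth.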 Activity calls are given as the source filed them. Cut-off read from the data, not from the text of the source: active = GI50 up to about 1.1 µM and inactive = higher.
# Tests used:
# Assay in all cases: NCI anticancer screen, dose series, 48 h
# SW-620 = tested on: SW-620
# K562 = tested on: K562
# OVCAR-4 = tested on: OVCAR-4
# UACC-62 = tested on: UACC-62
# MDA-MB-435 = tested on: MDA-MB-435
# CCRF-CEM = tested on: CCRF-CEM
# HOP-62 = tested on: HOP-62
# SR = tested on: SR
# U-251 = tested on: U-251
# A549 = tested on: A549
# RXF 393 = tested on: RXF 393
# SF-295 = tested on: SF-295
# SNB-75 = tested on: SNB-75
# NCI-H226 = tested on: NCI-H226
# DU-145 = tested on: DU-145
# HCC 2998 = tested on: HCC 2998
# A498 = tested on: A498
# Malme-3M = tested on: Malme-3M
# ACHN = tested on: ACHN
# SN12C = tested on: SN12C
# MOLT-4 = tested on: MOLT-4
# SF-268 = tested on: SF-268
# OVCAR-3 = tested on: OVCAR-3
# HCT-116 = tested on: HCT-116
# 786-0 = tested on: 786-0
# SF-539 = tested on: SF-539
# MDA-MB-231 = tested on: MDA-MB-231
# IGROV-1 = tested on: IGROV-1
# UO-31 = tested on: UO-31
# M14 = tested on: M14
# OVCAR-8 = tested on: OVCAR-8
# EKVX = tested on: EKVX
# UACC-257 = tested on: UACC-257
# SK-OV-3 = tested on: SK-OV-3
# Hs-578T = tested on: Hs-578T
# NCI-H23 = tested on: NCI-H23
# HOP-92 = tested on: HOP-92
# SK-MEL-5 = tested on: SK-MEL-5
# COLO 205 = tested on: COLO 205
# TK-10 = tested on: TK-10
# CAKI-1 = tested on: CAKI-1
# RPMI-8226 = tested on: RPMI-8226
# HT-29 = tested on: HT-29
# BT-549 = tested on: BT-549
# MCF7 = tested on: MCF7
# HL-60 = tested on: HL-60
# SK-MEL-2 = tested on: SK-MEL-2
# HCT-15 = tested on: HCT-15
# PC-3 = tested on: PC-3
# KM12 = tested on: KM12
# OVCAR-5 = tested on: OVCAR-5
# NCI/ADR-RES = tested on: NCI/ADR-RES
# T47D = tested on: T47D
# NCI-H460 = tested on: NCI-H460
# MDA-N = tested on: MDA-N
# LOX IMVI = tested on: LOX IMVI
# SK-MEL-28 = tested on: SK-MEL-28
# SNB-19 = tested on: SNB-19
# NCI-H522 = tested on: NCI-H522
structure (smiles),measurement,setting,value
CCN(CC)C1Oc2cc3c(cc2C(c2cc(OC)c(O)c(OC)c2)C1C)OCO3 (stereo not drawn),GI50,SW-620,4.62 µM (inactive)
same,GI50,K562,2.98 µM (inactive)
same,GI50,OVCAR-4,22.3 µM (inactive)
same,GI50,UACC-62,4.49 µM (inactive)
same,GI50,MDA-MB-435,2.14 µM (inactive)
same,GI50,CCRF-CEM,7.29 µM (inactive)
same,GI50,HOP-62,10.1 µM (inactive)
same,GI50,SR,4.57 µM (inactive)
same,GI50,U-251,10.5 µM (inactive)
same,GI50,A549,11.7 µM (inactive)
same,GI50,RXF 393,6.95 µM (inactive)
same,GI50,SF-295,5.22 µM (inactive)
same,GI50,SNB-75,3.48 µM (inactive)
same,GI50,NCI-H226,10.8 µM (inactive)
same,GI50,DU-145,29.9 µM (inactive)
same,GI50,HCC 2998,7.01 µM (inactive)
same,GI50,A498,24.6 µM (inactive)
same,GI50,Malme-3M,3.55 µM (inactive)
same,GI50,ACHN,18.3 µM (inactive)
same,GI50,SN12C,15.2 µM (inactive)
same,GI50,MOLT-4,6.08 µM (inactive)
same,GI50,SF-268,16.3 µM (inactive)
same,GI50,OVCAR-3,7.21 µM (inactive)
same,GI50,HCT-116,4.53 µM (inactive)
same,GI50,786-0,10.4 µM (inactive)
same,GI50,SF-539,11.3 µM (inactive)
same,GI50,MDA-MB-231,18.8 µM (inactive)
same,GI50,IGROV-1,9.98 µM (inactive)
same,GI50,UO-31,19.6 µM (inactive)
same,GI50,M14,4.69 µM (inactive)
same,GI50,OVCAR-8,14.8 µM (inactive)
same,GI50,EKVX,36.8 µM (inactive)
same,GI50,UACC-257,25 µM (inactive)
same,GI50,SK-OV-3,9.18 µM (inactive)
same,GI50,Hs-578T,6.84 µM (inactive)
same,GI50,NCI-H23,28.8 µM (inactive)
same,GI50,HOP-92,15.5 µM (inactive)
same,GI50,SK-MEL-5,3.63 µM (inactive)
same,GI50,COLO 205,15.5 µM (inactive)
same,GI50,TK-10,24.9 µM (inactive)
same,GI50,CAKI-1,12.5 µM (inactive)
same,GI50,RPMI-8226,7.14 µM (inactive)
same,GI50,HT-29,7.31 µM (inactive)
same,GI50,BT-549,6.95 µM (inactive)
same,GI50,MCF7,4.85 µM (inactive)
same,GI50,HL-60,2.69 µM (inactive)
same,GI50,SK-MEL-2,18.7 µM (inactive)
same,GI50,HCT-15,12.6 µM
same,GI50,PC-3,14.4 µM (inactive)
same,GI50,KM12,4.44 µM (inactive)
same,GI50,OVCAR-5,14.2 µM (inactive)
same,GI50,NCI/ADR-RES,5.92 µM (inactive)
same,GI50,T47D,16.8 µM (inactive)
same,GI50,NCI-H460,6.18 µM (inactive)
same,GI50,MDA-N,1.98 µM (inactive)
same,GI50,LOX IMVI,9.66 µM (inactive)
same,GI50,SK-MEL-28,14.2 µM (inactive)
same,GI50,SNB-19,16.2 µM (inactive)
same,GI50,NCI-H522,3.1 µM (inactive)
C#C[C@]1(O)CC[C@H]2[C@@H]3CCC4=C/C(=N\OCCN(CC)CC)CC[C@]4(C)[C@H]3CC[C@@]21C,GI50,SW-620,7.18 µM (inactive)
same,GI50,K562,3.09 µM (inactive)
same,GI50,OVCAR-4,12.5 µM (inactive)
same,GI50,UACC-62,3.44 µM (inactive)
same,GI50,MDA-MB-435,3.27 µM (inactive)
same,GI50,CCRF-CEM,3.33 µM (inactive)
same,GI50,HOP-62,3.58 µM (inactive)
same,GI50,SR,2.94 µM (inactive)
same,GI50,U-251,8.04 µM (inactive)
same,GI50,A549,5.77 µM (inactive)
same,GI50,RXF 393,2.41 µM (inactive)
same,GI50,SF-295,2.16 µM (inactive)
same,GI50,SNB-75,3.05 µM (inactive)
same,GI50,NCI-H226,11.9 µM (inactive)
same,GI50,DU-145,10.4 µM (inactive)
same,GI50,HCC 2998,10.2 µM (inactive)
same,GI50,A498,10.8 µM (inactive)
same,GI50,Malme-3M,3.25 µM (inactive)
same,GI50,ACHN,6.7 µM (inactive)
same,GI50,SN12C,9.12 µM (inactive)
same,GI50,MOLT-4,0.122 µM (active)
same,GI50,SF-268,2.92 µM (inactive)
same,GI50,OVCAR-3,2.87 µM (inactive)
same,GI50,HCT-116,3.44 µM (inactive)
same,GI50,786-0,2.7 µM (inactive)
same,GI50,SF-539,4.26 µM (inactive)
same,GI50,MDA-MB-231,13.6 µM (inactive)
same,GI50,IGROV-1,3.85 µM (inactive)
same,GI50,UO-31,3.72 µM (inactive)
same,GI50,M14,3.02 µM (inactive)
same,GI50,OVCAR-8,7.24 µM (inactive)
same,GI50,EKVX,6.87 µM (inactive)
same,GI50,UACC-257,4.31 µM (inactive)
same,GI50,SK-OV-3,9.4 µM (inactive)
same,GI50,Hs-578T,3.18 µM (inactive)
same,GI50,NCI-H23,5.22 µM (inactive)
same,GI50,HOP-92,16.5 µM (inactive)
same,GI50,SK-MEL-5,2.44 µM (inactive)
same,GI50,COLO 205,3.02 µM (inactive)
same,GI50,TK-10,6.7 µM (inactive)
same,GI50,CAKI-1,7.93 µM (inactive)
same,GI50,RPMI-8226,2.53 µM (inactive)
same,GI50,HT-29,3.74 µM (inactive)
same,GI50,BT-549,10 µM (inactive)
same,GI50,MCF7,4.29 µM (inactive)
same,GI50,HL-60,0.586 µM (active)
same,GI50,SK-MEL-2,3.27 µM (inactive)
same,GI50,HCT-15,5.6 µM
same,GI50,PC-3,3.18 µM (inactive)
same,GI50,KM12,2.92 µM (inactive)
same,GI50,OVCAR-5,12.9 µM (inactive)
same,GI50,NCI/ADR-RES,2.59 µM (inactive)
same,GI50,T47D,6.3 µM (inactive)
same,GI50,NCI-H460,5.08 µM (inactive)
same,GI50,MDA-N,2.18 µM (inactive)
same,GI50,LOX IMVI,3.13 µM (inactive)
same,GI50,SK-MEL-28,7.66 µM (inactive)
same,GI50,SNB-19,5.06 µM (inactive)
same,GI50,NCI-H522,2.42 µM (inactive)
